Like-named read-outs stand apart in the source and are kept apart here.
Key:
beagle dogs [1] = experiment: tolerability in male and female beagle dogs, oral bolus administration; settings: 1.5 mg/kg/day
conscious SH rats [2] = experiment: antihypertensive activity, oral, in conscious SH rats (mean blood pressure); assay type: in vivo; settings: for duration of antihypertensive effect (in words): SH rats; for decrease of the mean blood pressure (--BP), maximum / antihypertensive activity: conscious SH rats, oral; for decrease of the mean blood pressure (--BP), maximum: 1.6 mg/kg
Method: The maximum hypotensive effect, proportional to the administered dose, takes place 5-7 hours after the administration and the blood pressure is maintained at the decreased level for further 4-5 hours, at least. […]
Dosages such as 0.2-0.4 mg/Kg are sufficient to stabilize gradually the mean B.P. to lower level for a 24 hrs period. The drop-out of the pharmacological treatment is not combined with an acute hypertensive rebound effect but in the following 2-3 days the mean blood pressure gradually rises to the initial values.

in vivo = settings: mouse
mice = experiment: acute toxicity in mice (LD50, os and i.p.)
beagle dogs [3] = settings: dog, in vivo
conscious SH rats [4] = settings: in the same experimental models; cited from earlier work
[5] = system: K^+ -depolarized rat aorta strips; experiment: inhibition of contractile responses to increasing Ca++ concentration in K+ depolarized rat aorta strips

SMILES | LD50 (in vivo; ip) [mg/kg] | LD50 (in vivo; po) [mg/kg] | further results
CCOC(=O)C1=C(CSCCN)NC(C)=C(C(=O)OC)C1c1cccc([N+](=O)[O-])c1 (racemic) [Compound 11, 2-(2-aminoethylthio)methyl-3-ethoxycarbonyl-5-methoxycarbonyl-4-(m-nitrophenyl)-6-methyl-1,4-dihydropyridine] | 22 | 52 | death of dogs (beagle dogs [1]): died after three days treatment; duration of antihypertensive effect (in words) (conscious SH rats [2]): long lasting effects; decrease of the mean blood pressure (--BP), maximum (conscious SH rats [2]): higher than 85 mmHg
CCOC(=O)C1=C(CSCCNC(C)=O)NC(C)=C(C(=O)OC)C1c1cccc([N+](=O)[O-])c1 (racemic) [rac 2-acetylamino ethyl-thio-methyl, reference compound] |  |  | duration of antihypertensive effect (in words) (conscious SH rats [2]): shorter lasting antihypertensive effect
CCOC(=O)C1=C(CSCCN)NC(C)=C(C(=O)OC)C1c1ccccc1 (centres unmarked) [Compound 1] | 31 | 33 | 
CCOC(=O)C1=C(CSCCN)NC(C)=C(C(=O)OC)C1c1ccccc1C(F)(F)F (centres unmarked) [Compound 2] | 2 | 2 | decrease of the mean blood pressure (--BP), maximum (conscious SH rats [2]): higher than 85 mmHg
CCOC(=O)C1=C(C)NC(CSCCN)=C(C(=O)OCC)C1c1ccccc1C(F)(F)F (centres unmarked) [Compound 3] | 5 | 9 | 
CCOC(=O)C1=C(CSCCN)NC(C)=C(C(=O)OC)C1c1ccccc1[N+](=O)[O-] (centres unmarked) [Compound 4] | 2 | 3 | 
CCOC(=O)C1=C(C)NC(CSCCN)=C(C(=O)OCC)C1c1ccccc1Cl (centres unmarked) [Compound 5] | 9 | 12 | decrease of the mean blood pressure (--BP), maximum (conscious SH rats [2]): higher than 85 mmHg
CCOC(=O)C1=C(CSCCN)NC(C)=C(C(=O)OC)C1c1ccccc1Cl (centres unmarked) [Compound 6, 2-(2-aminoethylthio)methyl-3-ethoxycarbonyl-5-methoxycarbonyl-4-(2-chlorophenyl)-6-methyl-1,4-dihydropyridine] | 4 | 5 | decrease of the mean blood pressure (--BP), maximum (conscious SH rats [2]): higher than 85 mmHg
CCOC(=O)C1=C(CSCCN)NC(C)=C(C(=O)OC)C1c1cccc(Cl)c1 (centres unmarked) [Compound 7] | 23 | 40 | decrease of the mean blood pressure (--BP), maximum (conscious SH rats [2]): higher than 85 mmHg
CCOC(=O)C1=C(CSCCN)NC(C)=C(C(=O)OC)C1c1ccccc1SC (centres unmarked) [Compound 8] | 5 | 8 | 
CCOC(=O)C1=C(CSCCN)NC(C)=C(C(=O)OC)C1c1cccc(C(F)(F)F)c1 (centres unmarked) [Compound 9] | 23 | 40 | 
CCOC(=O)C1=C(C)NC(CSCCN)=C(C(=O)OCC)C1c1cccc([N+](=O)[O-])c1 (centres unmarked) [Compound 10] | 20 | 21 | decrease of the mean blood pressure (--BP), maximum (conscious SH rats [2]): higher than 85 mmHg
CCOC(=O)C1=C(CSCCN(C)C)NC(C)=C(C(=O)OC)C1c1cccc([N+](=O)[O-])c1 (centres unmarked) [Compound 12] | 25 | 38 | decrease of the mean blood pressure (--BP), maximum (conscious SH rats [2]): higher than 85 mmHg
CCOC(=O)C1=C(CSCCN)NC(C)=C(C(=O)OC)C1c1cccc([N+](=O)[O-])c1 (centres unmarked) [Compound 13] | 8 | 21 | 
CCCCNCCSCC1=C(C(=O)OCC)C(c2cccc([N+](=O)[O-])c2)C(C(=O)OC)=C(C)N1 (centres unmarked) [Compound 14] |  | 23 | LD50 in mice, i.p. (mice; mice, i.p.): 12 mg/kg
CCCCNCCSCC1=C(C(=O)OCC)C(c2cccc([N+](=O)[O-])c2)C(C(=O)OC)=C(C)N1 (centres unmarked) [Compound 15] |  |  | death of dogs (beagle dogs [1]): died after three days treatment; LD50 in mice, i.p. (mice; mice, i.p.): 39 mg/kg; LD50 in mice, OS (mice; mice, oral (os)): 40 mg/kg
CCOC(=O)C1=C(CSCC2CCCN2)NC(C)=C(C(=O)OC)C1c1cccc([N+](=O)[O-])c1 (centres unmarked) [Compound 16a] |  |  | LD50 in mice, i.p. (mice; mouse, in vivo, ip): 7 mg/kg; LD50 in mice, OS (mice; mouse, in vivo, po): 17 mg/kg
CCOC(=O)C1=C(CSCC2CCCN2)NC(C)=C(C(=O)OC)C1c1cccc([N+](=O)[O-])c1 (centres unmarked) [Compound 16b] |  |  | LD50 in mice, i.p. (mice; mouse, in vivo, ip): 25 mg/kg; LD50 in mice, OS (mice; mouse, in vivo, po): 39 mg/kg
CCOC(=O)C1=C(CSCC2CCCN2)NC(C)=C(C(=O)OC)C1c1cccc([N+](=O)[O-])c1 (centres unmarked) [Compound 16c] |  |  | LD50 in mice, i.p. (mice; mouse, in vivo, ip): 27 mg/kg; LD50 in mice, OS (mice; mouse, in vivo, po): 55 mg/kg
CCOC(=O)C1=C(CSCC2CCCN2)NC(C)=C(C(=O)OC)C1c1cccc([N+](=O)[O-])c1 (centres unmarked) [Compound 16d] |  |  | antihypertensive activity (conscious SH rats [2]; 3.2 mg/kg): practically inactive; LD50 in mice, i.p. (mice; mouse, in vivo, ip): 1000 mg/kg; LD50 in mice, OS (mice; mouse, in vivo, po): 1000 mg/kg

SMILES | LD50 (in vivo; ip) [mg/kg] | LD50 (in vivo; po) [mg/kg] | further results
CCOC(=O)C1=C(CSCCCN)NC(C)=C(C(=O)OC)C1c1cccc([N+](=O)[O-])c1 (centres unmarked) [Compound 17] | 16 | 22 | 
CCOC(=O)C1=C(CSCCCCN)NC(C)=C(C(=O)OC)C1c1cccc([N+](=O)[O-])c1 (centres unmarked) [Compound 18] | 4 | 11 | 
CCOC(=O)C1=C(C)NC(CSCCNCCC#N)=C(C(=O)OCC)C1c1cccc([N+](=O)[O-])c1 (centres unmarked) [Compound 19] | 54 | 95 | 
CCOC(=O)C1=C(CSCCNCCC#N)NC(C)=C(C(=O)OC)C1c1cccc([N+](=O)[O-])c1 (centres unmarked) [Compound 20, 2-[2-[N-(2-cyanoethyl)aminoethyl]thio]methyl-3-ethoxycarbonyl-5-methoxycarbonyl-4-(m-nitrophenyl)-6-methyl-1,4-dihydropyridine] | 35 | 63 | 
CCOC(=O)C1=C(CSCCN)NC(C)=C([N+](=O)[O-])C1c1cccc([N+](=O)[O-])c1 (centres unmarked) [Compound 21] | 108 | 451 | 
CCOC(=O)C1=C(CSCCN)NC(C)=C(C#N)C1c1cccc([N+](=O)[O-])c1 (centres unmarked) [Compound 22] | 82 | 611 | 
CCOC(=O)C1=C(CSCCN)NC(C)=C(C(=O)OCCN(C)Cc2ccccc2)C1c1cccc([N+](=O)[O-])c1 (centres unmarked) [Compound 23] | 32 | 91 | 
CCOC(=O)C1=C(CSCCN)NC(C)=C(C(=O)OC(C)C)C1c1cccc([N+](=O)[O-])c1 (centres unmarked) [Compound 24] | 25 | 53 | 
COC(=O)C1=C(C)NC(CSCCN)=C(C(=O)OC)C1c1cccc([N+](=O)[O-])c1 (centres unmarked) [Compound 25] | 25 | 53 | 
CCOC(=O)C1=C(CSCCN)NC(C)=C(C(=O)OC)C1c1cccc(OC)c1 (centres unmarked) [Compound 26] | 59 | 82 | 
CCOC(=O)C1=C(CSCCN)NC(C)=C(C(=O)OC)C1c1ccc(F)cc1 (centres unmarked) [Compound 27] | 28 | 46 | 
CCOC(=O)C1=C(CSCCN)NC(C)=C(C(=O)OC)C1c1cccc(C#N)c1 (centres unmarked) [Compound 28] | 43 | 34 | 
CCOC(=O)C1=C(CSCC(N)c2ccccc2)NC(C)=C(C(=O)OC)C1c1cccc([N+](=O)[O-])c1 (centres unmarked) [Compound 29] | 46 | 77 | 
CCOC(=O)C1=C(CSCC(C)N)NC(C)=C(C(=O)OC)C1c1cccc([N+](=O)[O-])c1 (centres unmarked) [Compound 30] | 50 | 42 | 
CCOC(=O)C1=C(CSCC(N)CO)NC(C)=C(C(=O)OC)C1c1cccc([N+](=O)[O-])c1 (centres unmarked) [Compound 31] | 87 | 371 | 
CCOC(=O)C1=C(C)NC(CSCC(N)C(=O)OCC)=C(C(=O)OCC)C1c1cccc([N+](=O)[O-])c1 (centres unmarked) [Compound 32] | 354 | 763 | 
CCOC(=O)C1=C(CSCCNC=O)NC(C)=C(C(=O)OC)C1c1cccc([N+](=O)[O-])c1 (centres unmarked) [Example 3, 2-(2-formylaminoethylthio)-methyl-3-ethoxycarbonyl-5-methoxycarbonyl-4-(m-nitrophenyl)-6-methyl-1.4-dihydropyridine] | 150 | 200 | duration of antihypertensive effect (in words) (conscious SH rats [2]): long lasting effects; antihypertensive activity (conscious SH rats [2]; once daily, very low doses (for ex. 0.2 mg/kg/os)): pronounced and long lasting antihypertensive activity; death of dogs (beagle dogs [3]): do not die after two weeks treatment; tolerability in dogs (beagle dogs [3]): high tolerability; acute toxicity (in words) (mice; mice where stated): low oral acute toxicity
CCOC(=O)C1=C(CSCCNC=O)NC(C)=C(C(=O)OC)C1c1ccccc1SC (centres unmarked) [N-formylation of compound 8] |  | 90 | 
NNc1nncc2ccccc12 [hydralazine] |  |  | reflex tachicardia (other antihypertensive agents) (conscious SH rats [4]): often observed
COC(=O)C1=C(C)NC(C)=C(C(=O)OC)C1c1ccccc1[N+](=O)[O-] [nifedipine] |  |  | dependence of inhibition on incubation time [5]: not related to the incubation time

Reference: patent US5047414A, “2-(aminoalkylthio)methyl-1,4-dihydropyridine, a method for the preparation thereof and pharmaceutical compositions containing them” (Boehringer Biochemia Robin S.p.A., priority 1986, dated 1991)
